Measured values taken from patent US11931372B2, “Pharmaceutical composition containing pentacyclic triterpenoids” (SPV TIMSER, S.A.P.I. DE C.V., priority 2021, dated 2024).
Like-named read-outs stand apart in the source and are kept apart here.

Assays:
[1] = tested on: murine respiratory tract tissue; settings: mouse, in vivo, 14 days
[2] = Pharmacokinetic study in healthy volunteers, inhaled route by nebulizer; assay type: in vivo, human; settings: GA by inhalation, FIGS. 13 and 14
Experimental: Alternative tests were conducted to verify the synergistic behavior of the compositions of interest. For this reason, the results of pharmacokinetic studies are described and disclosed herein below. The study was based on the application of different versions of the herein claimed pharmaceutical composition to healthy volunteers by the inhaled route of administration, by means of a nebulizer device. The volunteers were given the drug once every 24 hours for three days. In addition, blood samples were taken from them at different time points. These samples were analyzed to quantify glycyrrhizinic acid (GA) and Enoxolone (EN) contents through the mass coupled HPLC methodology. […]
Blood samples of 5 mL were taken from each of the individuals at 30 minutes and at 1, 2, 3, 6, 12, 24, 48, 72 and 96 hours after drug administration. Then, the AG and EN concentrations in these blood samples were determined using the mass coupled HPLC methodology. In all cases, both components were quantified.
The following tables denote pharmacokinetic results (Area Under the Curve (AUC)) of the two drugs assessed (GA and EN). The Area Under the Curve (AUC) is a parameter related to the drug quantity to which the body has been exposed. […] The AUC was calculated using the R programming language within the “PK” software bundle. […]

SARS-CoV = settings: culture cells; cited from earlier work
[3] = tested on: murine respiratory tract tissue; experiment: Toxicity and irritability assay by the inhaled route in murine rodents, histopathological lesion score; settings: for Degenerative: Alveolar lesion score / Degenerative: Bronchial lesion score / Degenerative: Bronchiolar lesion score / Fibrosis: Alveolar Septa lesion score / Fibrosis: Peribronchial lesion score / Fibrosis: Peribronchiolar lesion score / Inflammatory: Bronchiolitis lesion score / Inflammatory: Bronchitis lesion score / Inflammatory: Hyaline Membrane lesion score / Inflammatory: Interstitial Pneumonia lesion score / Inflammatory: Vasculitis lesion score / Necrosis: Alveolar lesion score / Necrosis: Bronchial lesion score / Necrosis: Bronchiolar lesion score / Vascular: Alveolar edema lesion score / Vascular: Congestion lesion score / Vascular: Hemorrhage lesion score / Vascular: Interstitial edema lesion score / Vascular: Thrombosis lesion score / TOTAL damage and lesion rating: inhaled 10 min/day for 14 days; for Degenerative: Alveolar lesion score / Degenerative: Bronchial lesion score / Degenerative: Bronchiolar lesion score / Fibrosis: Alveolar Septa lesion score / Fibrosis: Peribronchial lesion score / Fibrosis: Peribronchiolar lesion score / Inflammatory: Bronchiolitis lesion score / Inflammatory: Bronchitis lesion score / Inflammatory: Hyaline Membrane lesion score / Inflammatory: Interstitial Pneumonia lesion score / Inflammatory: Vasculitis lesion score / Necrosis: Alveolar lesion score / Necrosis: Bronchial lesion score / Necrosis: Bronchiolar lesion score / Vascular: Alveolar edema lesion score / Vascular: Congestion lesion score / Vascular: Hemorrhage lesion score / Vascular: Interstitial edema lesion score / Vascular: Thrombosis lesion score: score 0-5; for TOTAL damage and lesion rating: sum of scores
[4] = 75 mg of GA administered orally; cited from earlier work

Question: With `CC1(C)[C@@H](O)CC[C@]2(C)[C@H]3C(=O)C=C4[C@@H]5C[C@@](C)(C(=O)O)CC[C@]5(C)CC[C@@]4(C)[C@]3(C)CC[C@@H]12` [EN, 18-β glycyrrhetinic acid] as the compound, how does the “Degenerative: Alveolar lesion score” value [1] read?
Answer: 0

Question: And the “Fibrosis: Alveolar Septa lesion score” value [1]?
Answer: 0

Question: And the “Fibrosis: Peribronchial lesion score” value [1]?
Answer: 0

Question: What about the “Fibrosis: Peribronchiolar lesion score” value [1] of the same compound?
Answer: 0

Question: What about the “Inflammatory: Bronchiolitis lesion score” value [1] of the same compound?
Answer: 0

Question: And the “Inflammatory: Bronchitis lesion score” value [1]?
Answer: 0

Question: And the “Inflammatory: Hyaline Membrane lesion score” value [1]?
Answer: 0

Question: And the “Inflammatory: Vasculitis lesion score” value [1]?
Answer: 0

Question: What about the “Necrosis: Alveolar lesion score” value [1] of the same compound?
Answer: 0

Question: What about the “Necrosis: Bronchial lesion score” value [1] of the same compound?
Answer: 0

Question: And the “Necrosis: Bronchiolar lesion score” value [1]?
Answer: 0

Question: And the “Vascular: Alveolar edema lesion score” value [1]?
Answer: 0

Question: What about the “Vascular: Congestion lesion score” value [1] of the same compound?
Answer: 2

Question: And the “Vascular: Hemorrhage lesion score” value [1]?
Answer: 1

Question: What about the “Vascular: Thrombosis lesion score” value [1] of the same compound?
Answer: 0

Question: Which results are given for `CC1(C)[C@@H](O[C@H]2O[C@H](C(=O)O)[C@@H](O)[C@H](O)[C@H]2O[C@@H]2O[C@H](C(=O)O)[C@@H](O)[C@H](O)[C@H]2O)CC[C@]2(C)[C@H]3C(=O)C=C4[C@@H]5C[C@@](C)(C(=O)O)CC[C@]5(C)CC[C@@]4(C)[C@]3(C)CC[C@@H]12` [GA, glycyrrhizic acid]?
Answer: Time of initial peak value [2]: 60 min; Inhibition of SARS-CoV replication (SARS-CoV): prevented virus replication in culture cells; Degenerative: Alveolar lesion score ([3]; High dosage): 0; Degenerative: Bronchial lesion score ([3]; High dosage): 1; Degenerative: Bronchiolar lesion score ([3]; High dosage): 1; Fibrosis: Alveolar Septa lesion score ([3]; High dosage): 0; Fibrosis: Peribronchial lesion score ([3]; High dosage): 0; Fibrosis: Peribronchiolar lesion score ([3]; High dosage): 0; Inflammatory: Bronchiolitis lesion score ([3]; High dosage): 0; Inflammatory: Bronchitis lesion score ([3]; High dosage): 0; Inflammatory: Hyaline Membrane lesion score ([3]; High dosage): 0; Inflammatory: Interstitial Pneumonia lesion score ([3]; High dosage): 3.5; Inflammatory: Vasculitis lesion score ([3]; High dosage): 0; Necrosis: Alveolar lesion score ([3]; High dosage): 0; Necrosis: Bronchial lesion score ([3]; High dosage): 1; Necrosis: Bronchiolar lesion score ([3]; High dosage): 0; Vascular: Alveolar edema lesion score ([3]; High dosage): 0; Vascular: Congestion lesion score ([3]; High dosage): 2; Vascular: Hemorrhage lesion score ([3]; High dosage): 2; Vascular: Interstitial edema lesion score ([3]; High dosage): 2; Vascular: Thrombosis lesion score ([3]; High dosage): 0; TOTAL damage and lesion rating ([3]; High dosage): 12.5; Degenerative: Alveolar lesion score ([3]; Low dosage): 0; Degenerative: Bronchial lesion score ([3]; Low dosage): 0.5; Degenerative: Bronchiolar lesion score ([3]; Low dosage): 0.5; Fibrosis: Alveolar Septa lesion score ([3]; Low dosage): 0; Fibrosis: Peribronchial lesion score ([3]; Low dosage): 0; Fibrosis: Peribronchiolar lesion score ([3]; Low dosage): 0; Inflammatory: Bronchiolitis lesion score ([3]; Low dosage): 0; Inflammatory: Bronchitis lesion score ([3]; Low dosage): 0; Inflammatory: Hyaline Membrane lesion score ([3]; Low dosage): 0; Inflammatory: Interstitial Pneumonia lesion score ([3]; Low dosage): 3; Inflammatory: Vasculitis lesion score ([3]; Low dosage): 0; Necrosis: Alveolar lesion score ([3]; Low dosage): 0; Necrosis: Bronchial lesion score ([3]; Low dosage): 0; Necrosis: Bronchiolar lesion score ([3]; Low dosage): 0; Vascular: Alveolar edema lesion score ([3]; Low dosage): 0; Vascular: Congestion lesion score ([3]; Low dosage): 2; Vascular: Hemorrhage lesion score ([3]; Low dosage): 3; Vascular: Interstitial edema lesion score ([3]; Low dosage): 1; Vascular: Thrombosis lesion score ([3]; Low dosage): 0; TOTAL damage and lesion rating ([3]; Low dosage): 10; Effect on basal lesions (in words) ([3]; increases according to the amount of administered drug): generation of additional lesions to the basal lesions; EN concentration obtained by oral administration [4]: 200.3 ng/mL
